# Source: patent publication US5798391A, “Injectable solution of benzalkonium fluoride” (Aromafarm Limited, priority 1994, dated 1998)
# Read-outs that look alike come from different tables or passages of the source.
# Key:
# AIDS = conditions: person
# [1] = tested on: HERPES SIMPLEX VIRUS TYPE 2; test: virucidal activity of BKF, AFNOR T72-180, molecular screening (Table 5); type: cell-based, Herpes Simplex Virus Type 2 (HSV 2); conditions: 32° C.
# HIV-1 virus (LAI strain) [2] = test: residual infectiousness of treated HIV-1 on activated human lymphocytes, reverse transcriptase activity; type: cell-based, HIV-1 (LAI strain)
# HIV-1 virus (LAI strain) [3] = test: residual infectiousness of treated HIV-1 on activated human lymphocytes, antigen P25 ELISA; type: cell-based, HIV-1 (LAI strain); conditions: 1/2 dilutions, REV7 (30 min) and REV8 (60 min) (FIG. 4)
# rabbit blood = test: in vitro haemolysis of total blood, rabbit
# patient's blood = test: haemolytic concentration on AIDS patients' blood before injection; conditions: solution used 2.1 g/l
# Carre's disease = test: treatment of dogs suffering from Carre's disease; type: in vivo, dog
# Description: The invention was used to treat dogs suffering from Carre's disease. This disease, considered fatal and without treatment, is due to an ultravirus.
# Twelve dogs were treated with one 10 ml ampoule of benzalkonium fluoride solution at 2.1 g/l for 20 kg of animal. The injection was given once per day for three days. The dogs also had associated treatment (vitamins, antibiotics, vaccines, etc.).
# guinea pigs = test: LD 50, unique administration, Behrens and Karber method, guinea pigs; type: in vivo, albino guinea pig
# Description: The high toxicity of benzalkonium fluoride in unique administration in mice and guinea pigs was determined by the Behrens and Karber method, by intracardiac, intravenous and intraperitoneal injection. The animals used were young adult albino mice and albino guinea pigs. Ten animals were used for each dose administered, five males and five females. The benzalkonium fluoride was used in a 3 g/l isotonic solution of sterile apyrogenic sodium chloride. We observed the animals for 7 days after unique administration carried out using a sterile needle adapted to a syringe graduated in 1/10 ml to allow the treatment of each animal with an exact dose. The animals were weighed each day during the observation period.
# The LD 50 (lethal dose 50) was determined.
structure (smiles),measurement,setting,value
"CCCCCCCCCCCCCC[N+](C)(C)Cc1ccccc1.[F-] [benzalkonium fluoride, tetradecyl-dimethyl-benzyl-ammonium fluoride]",pain at the injection point,"AIDS; 50 ml at 2.1 g/l every twelve hours, end of second cure",pain at the injection point
same,number of CD4,"AIDS; after treatment, before: less than 200",600
same,general state,AIDS; fourth month,returned to a normal general state
same,general state,AIDS; one month and seven months after treatment,a good general state
same,fever,"AIDS; sixth day, 50 ml at 2.1 g/l every eight hours, three days, with Doxycycline",the fever had disappeared
same,"fever, vomiting and diarrhoea",AIDS; tenth day,"disappearance of the fever, vomiting and diarrhoea"
same,general state,"AIDS; tenth day, two cures of three days",a clear improvement in the general state
same,weight after gain,"AIDS; tenth day, before 57 kg",59.6 kg
same,fever,"AIDS; third day, 2.1 g/l every twelve hours",a clear fall in the fever
same,clinical symptoms,AIDS; three and a half months,no clinical symptoms
same,general state,AIDS; three and a half months,a good general state
same,weight,"AIDS; three and a half months, before 52 kg",56 kg
same,number of CD4,"AIDS; three and a half months, before 200",700
same,mobility,AIDS; totally bedridden before,could get up and walk
same,asthenia,AIDS; two months after start,progressive disappearance of the asthenia
same,virucidal activity: minimal contact time,[1]; 0.01% (m/V),15 min
same,Viral Titration,"[1]; 0.01% (m/V), 60 minutes",0 PFU/ml
same,Viral Titration,"[1]; 0.01% (m/V), 120 minutes",0 PFU/ml
same,Viral Titration,"[1]; 0.02% (m/V), 15 minutes",0 PFU/ml
same,Viral Titration,"[1]; 0.02% (m/V), 30 minutes",0 PFU/ml
same,Viral Titration,"[1]; 0.02% (m/V), 60 minutes",0 PFU/ml
same,Viral Titration,"[1]; 0.02% (m/V), 120 minutes",0 PFU/ml
same,virucidal activity: minimal concentration (reduction by logarithmic factor of at least 4),[1]; 15 minutes contact,0.01 % (m/V)
same,RT activity in culture supernatants,"HIV-1 virus (LAI strain) [2]; 1/2 dilution of virus treated with BKF, second experiment (FIG. 2)",No RT activity was detected
same,reverse transcriptase activity in culture supernatants,HIV-1 virus (LAI strain) [2]; 1/10 dilution of virus treated with BKF 20 μg/ml for 30 or 60 minutes (FIG. 1),no reverse transcriptase activity is revealed
same,log reduction at 20 µg/mL,"HIV-1 virus (LAI strain) [2]; Human immunodeficiency virus 1, Lymphocyte, 20 μg/ml, activated human lymphocytes, read-out: loss of infectious capacity in the HIV-1 virus",5
same,antigen P25 in lymphocyte supernatants,HIV-1 virus (LAI strain) [3],negative
same,haemolysis (degree of red colouring),rabbit blood; 37.5 ppm or mg/l,0
same,haemolysis (degree of red colouring),rabbit blood; 75 ppm or mg/l,+
same,haemolysis (degree of red colouring),rabbit blood; 150 ppm or mg/l,+++
same,haemolytic concentration on patient's blood,patient's blood,well above that of the solution used
same,dogs with nervous symptoms,"Carre's disease; five other dogs, generalised trembling",could not be treated
same,dogs saved,"Carre's disease; of twelve dogs, 10 ml of 2.1 g/l per 20 kg once per day, three days, associated treatment",effective for seven dogs who were saved
same,total recovery,Carre's disease; seven dogs saved,18 days
same,LD 50,"guinea pigs; female guinea pig, intracardiac",16.50 mg/mL
same,LD 50,"guinea pigs; female guinea pig, intraperitoneal",20.50 mg/mL
same,LD 50,"guinea pigs; male guinea pig, intracardiac",15.50 mg/mL
same,LD 50,"guinea pigs; male guinea pig, intraperitoneal",28.50 mg/mL
